Values of other authors as cited in patent US20220166043A1, “NEGATIVE ELECTRODE ELECTROLYTE SOLUTION FOR REDOX FLOW BATTERIES, AND REDOX FLOW BATTERY” (ARM Technologies Co., Ltd., priority 2019, published 2022).
Where “and” joins values, the source holds several entries; their conditions need not be identical. Equal values may be shown once. Read-outs that look alike come from different tables or passages of the source.

Details: octanol-water partition coefficient of the negative electrode solvent

Compound | Negative electrode solvent LogP (Log POW) | Negative electrode solvent LogP (Log POW) (listed as PP13 TFSI)
1-methyl-1-propylpyrrolidinium bis(trifluoromethanesulfonyl)imide | 4.82 | 4.8165
Cc1cnc(C)c(C)n1 [2,3,5-trimethylpyrazine] | 1.402 and 1.40 | –
c1ccc(COCCOCc2ccccc2)cc1 [EGDBE, ethylene glycol dibenzyl ether] | 3.42 | –
COC1CCCC1 [MCP, methoxycyclopentane] | 1.575 and 1.58 | –
